{"source": "patent US9145354B2", "about": "“Pharmaceutical compounds” (priority 2011, dated 2015)", "biological_target": "full length NS3/4a (Hepatitis C virus genotype 1b (isolate BK) (HCV), UniProt P26663)", "sequence (P26663 1027-1657)": "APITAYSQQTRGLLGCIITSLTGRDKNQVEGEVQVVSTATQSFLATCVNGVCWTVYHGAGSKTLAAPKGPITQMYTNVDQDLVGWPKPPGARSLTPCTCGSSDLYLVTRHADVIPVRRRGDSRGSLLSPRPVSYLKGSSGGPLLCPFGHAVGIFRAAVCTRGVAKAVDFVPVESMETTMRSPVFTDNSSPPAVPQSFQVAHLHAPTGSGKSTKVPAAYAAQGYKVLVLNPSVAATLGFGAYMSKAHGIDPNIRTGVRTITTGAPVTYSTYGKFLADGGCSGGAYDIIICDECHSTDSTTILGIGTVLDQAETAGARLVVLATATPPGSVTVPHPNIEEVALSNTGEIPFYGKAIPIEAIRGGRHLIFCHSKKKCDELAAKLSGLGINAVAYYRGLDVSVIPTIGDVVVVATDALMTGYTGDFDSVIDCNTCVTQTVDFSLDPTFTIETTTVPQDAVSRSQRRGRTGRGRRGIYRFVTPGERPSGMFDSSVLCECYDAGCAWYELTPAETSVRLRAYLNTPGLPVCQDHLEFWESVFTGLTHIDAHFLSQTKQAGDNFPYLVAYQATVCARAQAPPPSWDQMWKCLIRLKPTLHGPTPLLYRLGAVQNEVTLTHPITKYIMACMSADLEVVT", "assay": "NS3 Protease Assay (Example A), FRET-based", "type": "biochemical", "settings": "for pIC50: read-out: IC50 against the protease activity of the full length NS3/4a; for IC50: HCV NS3 protease assay, full length NS3/4a, read-out: Assay A IC50 (μM) average", "method": "The HCV NS3 protease functions have been extensively studied and are considered as potential targets for antiviral therapy: see for example the many references listed in the introductory section of this application. Therefore, the activity of the compounds of the invention as anti-HCV agents was assessed using a full length HCV NS3 protease.\nThe protease activity of the full length NS3/4a was measured using a FRET-based assay utilizing a peptide substrate derived from the NS4A/B cleavage site (Anaspec) and labelled at one end with a quencher (QXL520) and at the other with a fluorophore (5-FAMsp). NS3/4a (produced in-house by literature methods) was incubated with test compounds and peptide substrate in 50 mM Tris pH8, 20 mM DTT, 1% CHAPS, 10% glycerol and 5% DMSO. The reaction was followed by monitoring the change in fluorescence on a Molecular Devices Gemini plate reader for 30 minutes at room temperature. Initial rates were calculated from the progress curves using SoftMax Pro (Molecular Devices). IC50 values were then calculated from replicate curves using Prism GraphPad software.", "key": {"[1]": {"settings": "stated as IC50 less than 30 μM or at least 40% inhibition at a concentration of 100 μM"}}, "note": "pIC50: −log10 of the molar value. Where a name gives a salt, the structure may show the parent alone. Read-outs that look alike come from different tables or passages of the source."}
{"smiles": "CC[C@@H](N)c1ccc(Cl)c(C(=O)c2ccc(C#N)nc2)c1F", "note": "[Example 34, 5-({3-[(1R)-1-aminopropyl]-6-chloro-2-fluorophenyl}carbonyl)pyridine-2-carbonitrile]", "values": [{"measurement": "inhibition at 3 µM", "value": 55, "unit": "%"}, {"measurement": "pIC50", "value": "5.30 to 6.00"}]}
{"smiles": "CC[C@@H](N)c1ccc(Cl)c(C(=O)c2ccc(N(C)C)nc2)c1F", "note": "[Example 35, 5-({3-[(1R)-1-aminopropyl]-6-chloro-2-fluorophenyl}carbonyl)-N,N-dimethylpyridin-2-amine]", "values": [{"measurement": "inhibition at 10 µM", "value": 30, "unit": "%"}]}
{"smiles": "CC[C@@H](N)c1ccc(Cl)c(C(=O)c2ccc(NC)nc2)c1F", "note": "[Example 36, 5-({3-[(1R)-1-aminopropyl]-6-chloro-2-fluorophenyl}carbonyl)-N-methylpyridin-2-amine]", "values": [{"measurement": "IC50", "value": 0.71, "unit": "µM"}, {"measurement": "pIC50", "value": "> 6.00"}]}
{"smiles": "CC[C@@H](N)c1ccc(Cl)c(C(=O)c2ccc(-n3cccn3)nc2)c1F", "note": "[Example 37, (1R)-1-(4-chloro-2-fluoro-3-{[6-(1H-pyrazol-1-yl)pyridin-3-yl]carbonyl}phenyl)propan-1-amine]", "values": [{"measurement": "IC50", "value": 0.49, "unit": "µM"}, {"measurement": "pIC50", "value": "> 6.00"}]}
{"smiles": "CC[C@@H](N)c1ccc(Cl)c(C(=O)c2ccc(=O)[nH]c2)c1F", "note": "[Example 38, 5-({3-[(1R)-1-aminopropyl]-6-chloro-2-fluorophenyl}carbonyl)-1,2-dihydropyridin-2-one]", "values": [{"measurement": "IC50", "value": 3.6, "unit": "µM"}, {"measurement": "pIC50", "value": "5.30 to 6.00"}]}
{"smiles": "CC[C@@H](N)c1ccc(C)c(C(=O)c2ccccc2)c1F", "note": "[Example 39, (1R)-1-(3-benzoyl-2-fluoro-4-methylphenyl)propan-1-amine]", "values": [{"measurement": "IC50", "value": 0.73, "unit": "µM"}, {"measurement": "pIC50", "value": "> 6.00"}]}
{"smiles": "CC[C@@H](N)c1ccc(OC)c(C(=O)c2ccccc2)c1F", "note": "[Example 40, (1R)-1-(3-benzoyl-2-fluoro-4-methoxyphenyl)propan-1-amine]", "values": [{"measurement": "IC50", "value": 0.84, "unit": "µM"}, {"measurement": "pIC50", "value": "> 6.00"}]}
{"smiles": "CC[C@@H](N)c1ccc(Cl)c(C(=O)c2cc[n+]([O-])cc2)c1F", "note": "[Example 42, [3-((R)-1-Amino-propyl)-6-chloro-2-fluoro-phenyl]-(1-oxy-pyridin-4-yl)-methanone]", "values": [{"measurement": "IC50", "value": 0.53, "unit": "µM"}, {"measurement": "pIC50", "value": "> 6.00"}]}
{"smiles": "CC[C@@H](N)c1ccc(F)c(C(=O)c2ccccc2)c1F", "note": "[Example 43, (1R)-1-(3-benzoyl-2,4-difluorophenyl)propan-1-amine]", "values": [{"measurement": "IC50", "value": 0.74, "unit": "µM"}, {"measurement": "pIC50", "value": "> 6.00"}]}
{"smiles": "CC[C@@H](N)c1ccc(O)c(C(=O)c2ccccc2)c1F", "note": "[Example 44, 4-[(1R)-1-aminopropyl]-2-benzoyl-3-fluorophenol]", "values": [{"measurement": "inhibition at 100 µM", "setting": "@ 100 uM", "value": 30, "unit": "%"}]}
{"smiles": "CC[C@@H](N)c1ccc(Cl)c(C(=O)c2cncc(N)c2)c1F", "note": "[Example 45, 5-({3-[(1R)-1-aminopropyl]-6-chloro-2-fluorophenyl}carbonyl)pyridin-3-amine]", "values": [{"measurement": "inhibition at 10 µM", "value": 50, "unit": "%"}, {"measurement": "pIC50", "setting": "[1]", "value": "> 4.52"}]}
{"smiles": "CC[C@@H](N)c1ccc(Cl)c(C(=O)c2ccc(-n3cc(CO)cn3)nc2)c1F", "note": "[Example 46, {1-[5-({3-[(1R)-1-aminopropyl]-6-chloro-2-fluorophenyl}carbonyl)pyridin-2-yl]-1H-pyrazol-4-yl}methanol]", "values": [{"measurement": "inhibition at 10 µM", "value": 64, "unit": "%"}, {"measurement": "pIC50", "setting": "[1]", "value": "> 4.52"}]}
{"smiles": "Nc1ccc(C(=O)c2c(Cl)ccc([C@H](N)C3CC3)c2F)cn1", "note": "[Example 47, 5-({3-[(R)-amino(cyclopropyl)methyl]-6-chloro-2-fluorophenyl}carbonyl)pyridin-2-amine]", "values": [{"measurement": "IC50", "value": 0.18, "unit": "µM"}, {"measurement": "pIC50", "value": "> 6.00"}]}
{"smiles": "CC[C@@H](N)c1ccc(Cl)c(C(=O)c2ccc(COC(C)=O)cc2)c1F", "note": "[Example 49, [4-({3-[(1R)-1-aminopropyl]-6-chloro-2-fluorophenyl}carbonyl)phenyl]methyl acetate]", "values": [{"measurement": "IC50", "value": 0.15, "unit": "µM"}, {"measurement": "pIC50", "value": "> 6.00"}]}
{"smiles": "CC[C@@H](N)c1ccc(Cl)c(C(=O)c2ccc(CO)cc2)c1F", "note": "[Example 50, [4-({3-[(1R)-1-aminopropyl]-6-chloro-2-fluorophenyl}carbonyl)phenyl]methanol]", "values": [{"measurement": "IC50", "value": 0.21, "unit": "µM"}, {"measurement": "pIC50", "value": "> 6.00"}]}
{"smiles": "CC[C@@H](N)c1ccc(Cl)c(C(=O)c2cnc(SC)nc2)c1F", "note": "[Example 51, (1R)-1-(4-chloro-2-fluoro-3-{[2-(methylsulfanyl)pyrimidin-5-yl]carbonyl}phenyl)propan-1-amine]", "values": [{"measurement": "inhibition at 3 µM", "value": 44, "unit": "%"}, {"measurement": "pIC50", "setting": "[1]", "value": "> 4.52"}]}
{"smiles": "CC[C@@H](N)c1ccc(Cl)c(C(=O)c2ccnc(N)c2)c1F", "note": "[Example 52, 4-({3-[(1R)-1-aminopropyl]-6-chloro-2-fluorophenyl}carbonyl)pyridin-2-amine]", "values": [{"measurement": "IC50", "value": 0.77, "unit": "µM"}, {"measurement": "pIC50", "value": "> 6.00"}]}
{"smiles": "CC[C@@H](N)c1ccc(Cl)c(C(=O)c2cccc(CO)c2)c1F", "note": "[Example 54, [3-({3-[(1R)-1-aminopropyl]-6-chloro-2-fluorophenyl}carbonyl)phenyl]methanol]", "values": [{"measurement": "IC50", "value": 0.14, "unit": "µM"}, {"measurement": "pIC50", "value": "> 6.00"}]}
{"smiles": "CC[C@@H](N)c1ccc(Cl)c(C(=O)c2cn[nH]c2)c1F", "note": "[Example 55, (1R)-1-{4-chloro-2-fluoro-3-[(1H-pyrazol-4-yl)carbonyl]phenyl}propan-1-amine]", "values": [{"measurement": "IC50", "value": 4.4, "unit": "µM"}, {"measurement": "pIC50", "value": "5.30 to 6.00"}]}
{"smiles": "Nc1cnc(C(=O)c2c(Cl)ccc([C@H](N)C3CC3)c2F)cn1", "note": "[Example 56, 5-({3-[(R)-amino(cyclopropyl)methyl]-6-chloro-2-fluorophenyl}carbonyl)pyrazin-2-amine]", "values": [{"measurement": "IC50", "value": 0.6, "unit": "µM"}, {"measurement": "pIC50", "value": "> 6.00"}]}
{"smiles": "CC[C@@H](N)c1ccc(Cl)c(C(=O)c2cnc(NC)cn2)c1F", "note": "[Example 57, 5-({3-[(1R)-1-aminopropyl]-6-chloro-2-fluorophenyl}carbonyl)-N-methylpyrazin-2-amine]", "values": [{"measurement": "IC50", "value": 4.6, "unit": "µM"}, {"measurement": "pIC50", "value": "5.30 to 6.00"}]}
{"smiles": "CC[C@@H](N)c1ccc(Cl)c(C(=O)c2ccc3c(n2)NC(=O)CO3)c1F", "note": "[Example 58, 6-({3-[(1R)-1-aminopropyl]-6-chloro-2-fluorophenyl}carbonyl)-2H,3H,4H-pyrido[3,2-b][1,4]oxazin-3-one]", "values": [{"measurement": "inhibition at 10 µM", "value": 31, "unit": "%"}]}
{"smiles": "CC[C@@H](N)c1ccc(Cl)c(C(=O)c2ccc3c(c2)OCC(=O)N3)c1F", "note": "[Example 60, 7-({3-[(1R)-1-Aminopropyl]-6-chloro-2-fluorophenyl}-carbonyl)-3,4-dihydro-2H-1,4-benzoxazin-3-one]", "values": [{"measurement": "IC50", "value": 0.55, "unit": "µM"}, {"measurement": "pIC50", "value": "> 6.00"}]}
{"smiles": "Nc1ccc(C(=O)c2c(Cl)ccc([C@H](N)C3CC3)c2F)nc1", "note": "[Example 61, 6-({3-[(R)-amino(cyclopropyl)methyl]-6-chloro-2-fluorophenyl}carbonyl)pyridin-3-amine]", "values": [{"measurement": "IC50", "value": 1.2, "unit": "µM"}, {"measurement": "pIC50", "value": "5.30 to 6.00"}]}
{"smiles": "N#Cc1ccc(C(=O)c2c(Cl)ccc([C@H](N)C3CC3)c2F)nc1", "note": "[Example 62, 6-({3-[(R)-amino(cyclopropyl)methyl]-6-chloro-2-fluorophenyl}carbonyl)pyridine-3-carbonitrile]", "values": [{"measurement": "IC50", "value": 0.32, "unit": "µM"}, {"measurement": "pIC50", "value": "> 6.00"}]}
{"smiles": "CC[C@@H](N)c1ccc(Cl)c(C(=O)c2ccc([N+](=O)[O-])c(C)c2)c1F", "note": "[Example 64, (1R)-1-{4-chloro-2-fluoro-3-[(3-methyl-4-nitrophenyl)carbonyl]phenyl}propan-1-amine]", "values": [{"measurement": "inhibition at 0.1 µM", "setting": "@ 0.1 uM", "value": 44, "unit": "%"}]}
{"smiles": "CC[C@@H](N)c1ccc(Cl)c(C(=O)c2ccc3c(c2)OCCN3)c1F", "note": "[Example 65, (1R)-1-{4-chloro-3-[(3,4-dihydro-2H-1,4-benzoxazin-7-yl)carbonyl]-2-fluorophenyl}propan-1-amine]", "values": [{"measurement": "IC50", "value": 0.16, "unit": "µM"}]}
{"smiles": "CCC[C@@H](N)c1ccc(Cl)c(C(=O)c2ccc(N)nc2)c1F", "note": "[Example 66, 5-({3-[(1R)-1-aminobutyl]-6-chloro-2-fluorophenyl}carbonyl)pyridin-2-amine]", "values": [{"measurement": "IC50", "value": 0.2, "unit": "µM"}]}
{"smiles": "C=CC[C@@H](N)c1ccc(Cl)c(C(=O)c2ccc(N)nc2)c1F", "note": "[Example 67, 5-({3-[(1R)-1-aminobut-3-en-1-yl]-6-chloro-2-fluorophenyl}carbonyl)pyridin-2-amine]", "values": [{"measurement": "IC50", "value": 0.37, "unit": "µM"}]}
{"smiles": "N[C@@H](c1ccc(Cl)c(C(=O)c2ccc(CO)cc2)c1F)C1CC1", "note": "[Example 68, [4-({3-[(R)-amino(cyclopropyl)methyl]-6-chloro-2-fluorophenyl}-carbonyl)phenyl]methanol hydrochloride]", "values": [{"measurement": "IC50", "value": 0.21, "unit": "µM"}]}
{"smiles": "CC[C@@H](N[C@H](C)CC(N)=O)c1ccc(Cl)c(C(=O)c2ccc(N)nc2)c1F", "note": "[Example 82, (3R)-3-{[(1R)-1-{3-[(6-aminopyridin-3-yl)carbonyl]-4-chloro-2-fluorophenyl}propyl]-amino}butanamide]", "values": [{"measurement": "IC50", "value": 0.83, "unit": "µM"}]}
{"smiles": "CC[C@@H](N[C@H](C)CC(N)=O)c1ccc(Cl)c(C(=O)c2ccccc2)c1F", "note": "[Example 83, (3R)-3-{[(1R)-1-(3-benzoyl-4-chloro-2-fluorophenyl)propyl]-amino}butanamide]", "values": [{"measurement": "IC50", "value": 0.5, "unit": "µM"}]}
{"smiles": "CC[C@H](N[C@H](C)CC(N)=O)c1ccc(Cl)c(C(=O)c2ccccc2)c1F", "note": "[Example 85, (3R)-3-{[(1S)-1-(3-benzoyl-4-chloro-2-fluorophenyl)-propyl]-amino}butanamide]", "values": [{"measurement": "IC50", "value": 0.061, "unit": "µM"}]}
{"smiles": "CC[C@H](N[C@@H](C)CC(N)=O)c1ccc(Cl)c(C(=O)c2ccccc2)c1F", "note": "[Example 86, (3S)-3-{[(1S)-1-(3-benzoyl-4-chloro-2-fluorophenyl)-propyl]amino}butanamide]", "values": [{"measurement": "IC50", "value": 1, "unit": "µM"}, {"measurement": "pIC50", "value": "5.30 to 6.00"}]}
{"smiles": "CC[C@@H](N[C@H](C)CC(=O)NCCN)c1ccc(Cl)c(C(=O)c2ccccc2)c1F", "note": "[Example 87, (3R)—N-(2-Aminoethvl)-3-{[(1R)-1-(3-benzoyl-4-chloro-2-fluorophenyl)propyl]-amino}butanamide]", "values": [{"measurement": "inhibition at 0.01 µM", "setting": "@ 0.01 uM", "value": 54, "unit": "%"}]}
{"smiles": "CC[C@H](N[C@@H](C)CC(=O)NCCN)c1ccc(Cl)c(C(=O)c2ccccc2)c1F", "note": "[Example 89, (3S)-N-(2-aminoethyl)-3-{[(1S)-1-(3-benzoyl-4-chloro-2-fluorophenyl)propyl]-amino}butanamide]", "values": [{"measurement": "inhibition at 0.03 µM", "setting": "@ 0.03 uM", "value": 54, "unit": "%"}]}
